The text below walks through data of patent publication US11225505B2, “Antimicrobial polymyxin derivative compounds” (MONASH UNIVERSITY, priority 2015, dated 2022).

One data set concerns A. baumannii FADDI-AB030. As to the kind of experiment: In vivo efficacy in a neutropenic mouse lung infection model. On the set-up: species or system Acinetobacter baumannii. The following applies: 24 h. On the procedure: The in vivo efficacy of several compounds was examined in a neutropenic mouse lung infection model against the clinical isolate A. baumannii FADDI-AB030. This Gram-negative isolate is highly multi drug-resistant as illustrated in Table 7.
FADDI-AB030 was subcultured on nutrient agar plates from the −80° C. stock. One colony of the bacterial strain was dispersed in 10-mL CAMHB and incubated overnight. On day 2, an aliquot (0.2 mL) of overnight culture suspension was dispersed in 20-mL CAMHB and incubated for 1.5-2.5 h for production of early log-phase growth bacterial culture. The bacteria in the early log-phase growth suspension were concentrated by centrifugation (3,220 g for 10 min) and re-suspended in sterile 0.9% saline for inoculation into mice. The bacterial cell concentration (colony forming unit [CFU]/mL) in saline was estimated by determining the optical density (OD) of the suspension at 600 nm, and confirmed by plating the suspension on nutrient agar plates. […]
Lung infection was produced as follows. […] Bacterial burdens in lungs were determined at 2 h after inoculation (untreated controls) and 24 h later (untreated controls and compound-treated mice). […] The bacterial colonies on the agar plate were counted and the log10 CFU/lung in each mouse was calculated (FIG. 1). […]

The next data set concerns mice. The data set can be described thus: Acute toxicity observed in the mouse lung infection study. Type of data set: in vivo. The following applies: up to 180 mg/kg total dose (four times the polymyxin B dose). The protocol:
Lung infection was produced as follows. Mice (n=4) were anaesthetised by inhalation of 2% to 5% isoflurane in oxygen and rested in the supine position against a restraining board which was angled at 60-70° from the horizontal. Each mouse was inoculated with 25 μL of bacterial suspension in saline (˜10^6 bacterial cells in early logarithmic growth phase) sprayed directly into the trachea above the carina using a MicroSprayer® Aerosolizer (model IA-1C; Penn-Century, Philadelphia, Pa., USA). After discharge of the bacterial aerosol, mice were held upright on the restraining board for 2 min and then placed on a warm pad for recovery from anaesthesia. Treatment with polymyxin B and Compound 1, 3, 6 and 18 (intraperitoneal injection of dose-fractionated regimens across the daily dose) was initiated 2 h following inoculation. […] This was the highest dose of polymyxin B that could be safely administered without adverse effects, i.e. acute toxicity. Bacterial burdens in lungs were determined at 2 h after inoculation (untreated controls) and 24 h later (untreated controls and compound-treated mice). Animals were euthanised at 24 h by inhalation of overdose isoflurane. The skin on the chest and fore-paws of each animal was thoroughly cleansed with 70% ethanol and Betadine®. […] The bacterial colonies on the agar plate were counted and the log10 CFU/lung in each mouse was calculated (FIG. 1). […]

Data set [1] has as its system Acinetobacter baumannii FADDI-AB030. The data set can be described thus: microbe, parasite or virus in culture. Type of data set: cell-based. The following applies: FADDI-AB030. The gist of the method: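 Broth microdilution MIC in cation-adjusted Mueller-Hinton broth per CLSI M100-S24; lipopeptides tested as TFA salts. FADDI-AB030 is a multidrug-resistant clinical isolate. Polymyxin B sulphate served as control.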

In brackets after ≈: the same amount, converted by molar mass. Where a SMILES comes first, the peptide text is derived from it. Bridges are numbered along the chain shown (N, C = ends). [ ]: non-standard residue; d: D form. The star is where a group is joined. X1 = O=C(c1ncc(Cl)cc1Cl)*; Dab = NCC[C@H](N)C(=O)O; Abu = CC[C@H](N)C(=O)O; Dap = NC[C@H](N)C(=O)O

With `CC[C@@H]1NC(=O)[C@@H](CC(C)C)NC(=O)[C@H](CCN)NC(=O)[C@@H](NC(=O)[C@H](CN)NC(=O)[C@@H](NC(=O)[C@H](CCN)NC(=O)c2ncc(Cl)cc2Cl)[C@@H](C)O)CCNC(=O)[C@H]([C@@H](C)O)NC(=O)[C@H](CCN)NC(=O)[C@H](CCN)NC1=O` [Compound 1] (X1-[Dab]T[Dap][Dab][Dab][dL][Abu][Dab][Dab]T; lactam 4-C), in the data set on A. baumannii FADDI-AB030 (45 mg/kg total, neutropenic mice), the “in vivo antibacterial efficacy (bacterial burden in lung, FIG. 1) compared with polymyxin B at the same dose” value is listed as “improved in vivo antibacterial efficacy”. The “bacterial cells in the lung (FIG. 2)” value in the data set on A. baumannii FADDI-AB030 (total doses of 90 and 180 mg/kg) is given as “no longer detectable in the lung”. In addition, the acute toxicity result in the data set on mice is listed as “without any observable acute toxicity”. Besides, the Minimum inhibitory concentration in data set [1] is listed as 1 mg/L (≈ 0.861 µM).
